Reference: patent publication US20230255953A1, “USE OF ROLUPERIDONE IN PREVENTING RELAPSE IN SCHIZOPHRENIA PATIENTS” (Minerva Neurosciences, Inc., priority 2022, published 2023)

Test system: patients with negative symptoms of schizophrenia
Assay: Integrated analysis of Studies #1 and #2 (pooled ITT): PANSS-derived scores (NSFS, total, positive and negative subscales), DB, OL and whole study
Assay type: in vivo, human
Design: key to NSFS Score change from Baseline, Median: change from Baseline in PANSS NSFS points; higher score = more severe
Conditions: for NSFS Score change from Baseline, LS mean (SE) / NSFS Score change from Baseline, Mean (SD) / NSFS Score change from Baseline, Median / NSFS Score, Difference (95% CI) in LS mean (vs placebo) / PANSS Negative Subscale Score change from Baseline, LS mean (SE) / PANSS Negative Subscale Score change from Baseline, Mean (SD) / PANSS Negative Subscale Score change from Baseline, Median / PANSS Negative Subscale Score, Difference (95% CI) in LS mean (vs placebo) / PANSS Total Score change from Baseline, LS mean (SE) / PANSS Total Score change from Baseline, Mean (SD) / PANSS Total Score change from Baseline, Median / PANSS Total Score, Difference (95% CI) in LS mean (vs placebo): DB
Description: The primary integrated analysis of the efficacy of Roluperidone compared with placebo for the treatment of negative symptoms of schizophrenia is based on the change from Baseline in the PANSS Marder's negative symptoms factor score (in this document referred to as NSFS) to Week 12. Efficacy is also supported by the analysis of change from Baseline in the PSP Total score and the CGI-S to Week 12.
The PANSS was assessed at the time points described in Table 4.
The PANSS-derived endpoints used in these studies and the integrated analyses are described in Table 5A and a summary of the individual PANSS items used by physicians and clinicians to measure the severity of the symptoms in a schizophrenia patient is provided in Table 5B. The scale is divided into three parts, a positive scale, which provides a “PANSS positive subscore”, a negative scale, which provides a “PANSS negative subscore”, and general psychopathology scale. The sum of these three parts provides a PANSS total score, which ranges from 30 to 210 (where higher scores indicate more severe symptoms). (See Kay, S. R., et al. “The positive and negative syndrome scale (PANSS) for schizophrenia,” Schizophr Bulletin, 13(2), 261-276 (1987) and Gopal, S., et al. “Improvement of Negative Symptoms in Schizophrenia with Paliperidone Palmitate 1-Month and 3-Month Long-Acting Injectables: Results from a Phase 3 Non-Inferiority Study” Neuropsychiatric Disease and Treatment, 681-690, DOI: 10.2147/NDT.5226296, both of which are incorporated by reference.)
The Efficacy data from Study Nos. 1 and 2 were pooled. The majority of patients in the pooled ITT population completed the DB period (502 patients overall, 66.3%), with similar rates in each treatment group (placebo: 69.8%, 32 mg Roluperidone: 65.3%, and 64 mg Roluperidone: 63.8%) (Table 12). The majority (62.7%) of those who completed the DB period entered the OL period. The most common reason for discontinuation during the DB period among patients overall was withdrawal of consent (15.6%), followed by adverse events (7.3%) and lack of efficacy (5.4%) (Table 12). […] Approximately twice as many patients in the Roluperidone groups (32 mg: 8.5%; 64 mg: 9.1%) discontinued due to adverse events compared with patients in the placebo group (4.3%). More patients in the placebo group discontinued due to lack of efficacy (6.7%) than in the Roluperidone groups (32 mg: 4.4%; 64 mg: 5.1%). The low number of patients who discontinued due to lack of efficacy or withdrawal of consent probably reflects a low level of worsening of positive symptoms.
The integrated analysis supporting the efficacy of Roluperidone as a treatment for the negative symptoms of schizophrenia in adults is presented below.

## 1H-Isoindol-1-one,2-[ [1-[2-(4-fluorophenyl)-2-oxoethyl]-4-piperidinyl]methyl]-2,3-dihydro-, hydrochloride, hydrate (1:1:2) [Roluperidone]
32 mg, Week 12, pooled ITT
  PANSS positive subscale score, LS mean change from Baseline compared with placebo: −0.3
  PANSS total score, LS mean change from Baseline compared with placebo: −1.9
32 mg, responder analysis
  Patients with 20% Reduction in NSFS at Week 12, percent: 31%
  Patients with 20% Reduction in PANSS Total Score at Week 12, percent: 14%
32 mg, responder analysis, n/N
  Number of Patients with 20% Reduction in PANSS Total Score at Week 12: 24/167
  Number of Patients with 20% reduction in NSFS at Week 12: 51/167
64 mg, Week 2, pooled ITT
  NSFS Score change from Baseline, LS mean (SE): −1.4 (0.15)
  NSFS Score change from Baseline, Mean (SD): −1.4 (2.34)
  NSFS Score change from Baseline, Median: −1.0
  NSFS Score, Difference (95% CI) in LS mean (vs placebo): −0.4 (−0.8, −0.0)
  PANSS Negative Subscale Score change from Baseline, LS mean (SE): −1.4 (0.14)
  PANSS Negative Subscale Score change from Baseline, Mean (SD): −1.4 (2.28)
  PANSS Negative Subscale Score change from Baseline, Median: −1.0
  PANSS Negative Subscale Score, Difference (95% CI) in LS mean (vs placebo): −0.4
  PANSS Total Score change from Baseline, LS mean (SE): −2.2 (0.44)
  PANSS Total Score change from Baseline, Mean (SD): −2.2 (7.15)
  PANSS Total Score change from Baseline, Median: −2.0
  PANSS Total Score, Difference (95% CI) in LS mean (vs placebo): −0.9
  PANSS Positive Subscale Score change from Baseline, LS mean (SE): −0.1 (0.17)
  PANSS Positive Subscale Score change from Baseline, Mean (SD): −0.1 (2.85)
  PANSS Positive Subscale Score change from Baseline, Median: 0.0
  PANSS Positive Subscale Score, Difference (95% CI) in LS mean (vs placebo): −0.1
64 mg, Week 4, pooled ITT
  NSFS Score change from Baseline, LS mean (SE): −2.5 (0.19)
  NSFS Score change from Baseline, Mean (SD): −2.6 (2.73)
  NSFS Score change from Baseline, Median: −2.0
  NSFS Score, Difference (95% CI) in LS mean (vs placebo): −1.1
  PANSS Negative Subscale Score change from Baseline, LS mean (SE): −2.6 (0.19)
  PANSS Negative Subscale Score change from Baseline, Mean (SD): −2.8 (2.82)
  PANSS Negative Subscale Score change from Baseline, Median: −2.0
  PANSS Negative Subscale Score, Difference (95% CI) in LS mean (vs placebo): −1.2
  PANSS Total Score change from Baseline, LS mean (SE): −4.5 (0.52)
  PANSS Total Score change from Baseline, Mean (SD): −5.1 (7.16)
  PANSS Total Score change from Baseline, Median: −5.0
  PANSS Total Score, Difference (95% CI) in LS mean (vs placebo): −2.5
  PANSS Positive Subscale Score change from Baseline, LS mean (SE): −0.2 (0.18)
  PANSS Positive Subscale Score change from Baseline, Mean (SD): −0.4 (2.49)
  PANSS Positive Subscale Score change from Baseline, Median: −1.0
  PANSS Positive Subscale Score, Difference (95% CI) in LS mean (vs placebo): −0.5
64 mg, Week 8, pooled ITT
  NSFS Score change from Baseline, LS mean (SE): −3.4 (0.23)
  NSFS Score change from Baseline, Mean (SD): −3.6 (3.28)
  NSFS Score change from Baseline, Median: −3.0
  NSFS Score, Difference (95% CI) in LS mean (vs placebo): −1.2
  PANSS Negative Subscale Score change from Baseline, LS mean (SE): −3.7 (0.23)
  PANSS Negative Subscale Score change from Baseline, Mean (SD): −3.9 (3.27)
  PANSS Negative Subscale Score change from Baseline, Median: −3.0
  PANSS Negative Subscale Score, Difference (95% CI) in LS mean (vs placebo): −1.3
  PANSS Total Score change from Baseline, LS mean (SE): −5.7 (0.65)
  PANSS Total Score change from Baseline, Mean (SD): −6.8 (8.79)
  PANSS Total Score change from Baseline, Median: −6.0
  PANSS Total Score, Difference (95% CI) in LS mean (vs placebo): −2.5
  PANSS Positive Subscale Score change from Baseline, LS mean (SE): −0.3 (0.20)
  PANSS Positive Subscale Score change from Baseline, Mean (SD): −0.6 (2.61)
  PANSS Positive Subscale Score change from Baseline, Median: −1.0
  PANSS Positive Subscale Score, Difference (95% CI) in LS mean (vs placebo): −0.5
64 mg, Week 12, pooled ITT
  NSFS Score change from Baseline, LS mean (SE): −3.9 (0.26)
  NSFS Score change from Baseline, Mean (SD): −4.1 (3.64)
  NSFS Score change from Baseline, Median: −3.5
  NSFS Score, Difference (95% CI) in LS mean (vs placebo): −1.3
  PANSS Negative Subscale Score change from Baseline, LS mean (SE): −4.1 (0.27)
  PANSS Negative Subscale Score change from Baseline, Mean (SD): −4.4 (3.75)
  PANSS Negative Subscale Score change from Baseline, Median: −4.0
  PANSS Negative Subscale Score, Difference (95% CI) in LS mean (vs placebo): −1.3
  PANSS Total Score change from Baseline, LS mean (SE): −6.3 (0.70)
  PANSS Total Score change from Baseline, Mean (SD): −7.7 (9.43)
  PANSS Total Score change from Baseline, Median: −7.0
  PANSS Total Score, Difference (95% CI) in LS mean (vs placebo): −2.8
64 mg, Week 12, ITT
  NSFS Emotional Experience Score, Change from Baseline (LS Means [SEM]): −1.6 (0.13)
  NSFS Emotional Expression Score, Change from Baseline (LS Means [SEM]): −2.3 (0.16)
  NSFS, Change from Baseline (LS Means [SEM]): −3.9 (0.26)
  PANSS General Psychopathology Subscale, Change from Baseline (LS Means [SEM]): −2.2 (0.37)
  PANSS Negative Symptoms Subscale, Change from Baseline (LS Means [SEM]): −4.1 (0.27)
  PANSS Positive Symptoms Subscale, Change from Baseline (LS Means [SEM]): −0.2 (0.21)
  PANSS Total Score, Change from Baseline (LS Means [SEM]): −6.3 (0.70)
64 mg, Week 12, normal BMI (<25 kg/m^2) subgroup, pooled ITT
  NSFS, LS mean change from Baseline compared with placebo: −1.7
64 mg, Week 12, obese (≥30 kg/m^2) subgroup, pooled ITT
  NSFS, LS mean change from Baseline compared with placebo: −0.1
64 mg, Week 12, overweight BMI (25 to <30 kg/m^2) subgroup, pooled ITT
  NSFS, LS mean change from Baseline compared with placebo: −1.4
64 mg, Week 12, pooled
  Patients with high improvement in NSFS (magnitude of change >8): 13%
